Measurements: patent US10538521B2, “Pyrimidine derivative having antimalarial activity” (CARNA BIOSCIENCES, INC., priority 2016, dated 2020)
Where a name gives a salt, the structure may show the parent alone. Read-outs that look alike come from different tables or passages of the source.

Assays:
[1] = tested on: K1 strain, a drug resistant strain of Plasmodium falciparum; experiment: In vitro antimalarial assay (p-LDH, Malstat), K1 strain; type: cell-based; conditions: read-out: Antimalarial activity (IC50 value), Strain K1
How it was run: (§1)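 IC50 derived from concentration-response of parasite lactate dehydrogenase signal (Malstat reagent, NBT/PES formazan at 655 nm) after freeze-thaw lysis. Infected erythrocytes (hematocrit 2%, parasitaemia 0.5 or 1%) exposed 72 h to 12.5–0.0001 μM final compound under 3% O2-4% CO2-93% N2, FCR3 and K1 alike.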

[2] = tested on: FCR3 strain, a drug sensitive strain of Plasmodium falciparum; experiment: In vitro antimalarial assay (p-LDH, Malstat), FCR3 strain; type: cell-based; conditions: read-out: Antimalarial activity (IC50 value), Strain FCR3
How it was run: as §1

[3] = P. falciparum K1 (drug resistant), 72 h culture, p-LDH readout
[4] = P. falciparum FCR3 (drug sensitive), 72 h culture, p-LDH readout

Structure (SMILES) | IC50 [1, 3] [nM] | IC50 [2, 4] [nM] | IC50 ([1]; K1, 72 h) [nM] | IC50 ([2]; FCR3, 72 h) [nM]
CCc1ccnc(Nc2nc(Nc3ccn4ccnc4c3)cc(N3CCC3)n2)c1 [Example 118, 6-(azetidin-1-yl)-N2-(4-ethylpyridin-2-yl)-N4-(imidazo[1,2-a]pyridin-7-yl)pyrimidine-2,4-diamine] | < 100 | < 100 |  | 
CCc1ccnc(Nc2nc(Nc3ccn4ccnc4c3)cc(N3CCC(CO)CC3)n2)c1 [Example 119, (1-(2-((4-ethylpyridin-2-yl)amino)-6-(imidazo[1,2-a]pyridin-7-ylamino)pyrimidin-4-yl)piperidin-4-yl)methanol] | < 100 | < 100 |  | 
CCc1ccnc(Nc2nc(Nc3ccn4ccnc4c3)cc(N3CCOCCOCCOCC3)n2)c1 [Example 120, N2-(4-ethylpyridin-2-yl)-N4-(imidazo[1,2-a]pyridin-7-yl)-6-(1,4,7-trioxa-10-azacyclododecan-10-yl)pyrimidine-2,4-diamine] | 1000 to 10000 | 1000 to 10000 |  | 
CC(C)c1cccc(Nc2nc(Nc3ccn4ccnc4c3)cc(N3CCCCC3)n2)n1 [Example 121, N4-(imidazo[1,2-a]pyridin-7-yl)-N2-(6-isopropylpyridin-2-yl)-6-(piperidin-1-yl)pyrimidine-2,4-diamine] | 100 to 1000 | < 100 |  | 
CC(C)(C)c1cccc(Nc2nc(Nc3ccn4ccnc4c3)cc(N3CCCCC3)n2)n1 [Example 122, N2-(6-(tert-butyl)pyridin-2-yl)-N4-(imidazo[1,2-a]pyridin-7-yl)-6-(piperidin-1-yl)pyrimidine-2,4-diamine] | 100 to 1000 | 100 to 1000 |  | 
CC(C)c1cccc(Nc2nc(Nc3ccn4ccnc4c3)cc(N3CCOCC3)n2)n1 [Example 123, N4-(imidazo[1,2-a]pyridin-7-yl)-N2-(6-isopropylpyridin-2-yl)-6-morpholinopyrimidine-2,4-diamine formate] |  |  | 100 to 1000 | < 100
CC(C)(C)c1cccc(Nc2nc(Nc3ccn4ccnc4c3)cc(N3CCOCC3)n2)n1 [Example 124, N2-(6-(tert-butyl)pyridin-2-yl)-N4-(imidazo[1,2-a]pyridin-7-yl)-6-morpholinopyrimidine-2,4-diamine] | 100 to 1000 | 100 to 1000 |  | 
CCc1ccnc(Nc2nc(Nc3ccn4ccnc4c3)cc(N3CC[C@@H](N(C)C)C3)n2)c1 [Example 125, (R)-6-(3-(dimethylamino)pyrrolidin-1-yl)-N2-(4-ethylpyridin-2-yl)-N4-(imidazo[1,2-a]pyridin-7-yl)pyrimidine-2,4-diamine] | < 100 | < 100 |  | 
CCc1ccnc(Nc2nc(Nc3ccn4ccnc4c3)cc(N3CC[C@H](N(C)C)C3)n2)c1 [Example 126, (S)-6-(3-(dimethylamino)pyrrolidin-1-yl)-N2-(4-ethylpyridin-2-yl)-N4-(imidazo[1,2-a]pyridin-7-yl)pyrimidine-2,4-diamine] | < 100 | < 100 |  | 
CCc1ccnc(Nc2nc(Nc3ccn4ccnc4c3)cc(N3CCC(N4CCCC4)CC3)n2)c1 [Example 127, N2-(4-ethylpyridin-2-yl)-N4-(imidazo[1,2-a]pyridin-7-yl)-6-(4-(pyrrolidin-1-yl)piperidin-1-yl)pyrimidine-2,4-diamine] | < 100 | < 100 |  | 
COc1ccnc(Nc2nc(Nc3ccn4ccnc4c3)cc(N3CCCC3)n2)c1 [Example 128, N4-(imidazo[1,2-a]pyridin-7-yl)-N2-(4-methoxypyridin-2-yl)-6-(pyrrolidin-1-yl)pyrimidine-2,4-diamine] | < 100 | < 100 |  | 
CCc1ccnc(Nc2nc(Nc3ccn4ccnc4c3)cc(N3CCC(N(C)C)CC3)n2)c1 [Example 129, 6-(4-(dimethylamino)piperidin-1-yl)-N2-(4-ethylpyridin-2-yl)-N4-(imidazo[1,2-a]pyridin-7-yl)pyrimidine-2,4-diamine] | < 100 | < 100 |  | 
Cc1cc(C)nc(Nc2nc(Nc3ccn4ccnc4c3)cc(N3CCC(O)CC3)n2)c1 [Example 130, 1-(2-((4,6-dimethylpyridin-2-yl)amino)-6-(imidazo[1,2-a]pyridin-7-ylamino)pyrimidin-4-yl)piperidin-4-ol] | < 100 | < 100 |  | 

Second part, led by results:

IC50 [1, 3] [nM] | IC50 [2, 4] [nM] | Structure (SMILES) | IC50 ([1]; K1, 72 h) [nM] | IC50 ([2]; FCR3, 72 h) [nM]
< 100 | < 100 | COC1CCN(c2cc(Nc3ccn4ccnc4c3)nc(Nc3cc(C)cc(C)n3)n2)CC1 [Example 131, N2-(4,6-dimethylpyridin-2-yl)-N4-(imidazo[1,2-a]pyridin-7-yl)-6-(4-methoxypiperidin-1-yl)pyrimidine-2,4-diamine] |  | 
< 100 | < 100 | Cc1cc(C)nc(Nc2nc(Nc3ccn4ccnc4c3)cc(N3CCC(N4CCOCC4)CC3)n2)c1 [Example 132, N2-(4,6-dimethylpyridin-2-yl)-N4-(imidazo[1,2-a]pyridin-7-yl)-6-(4-morpholinopiperidin-1-yl)pyrimidine-2,4-diamine] |  | 
< 100 | < 100 | Cc1cc(C)nc(Nc2nc(Nc3ccn4ccnc4c3)cc(N3CCC(N4CCCCC4)CC3)n2)c1 [Example 133, 6-([1,4′-bipiperidin]-1′-yl)-N2-(4,6-dimethylpyridin-2-yl)-N4-(imidazo[1,2-a]pyridin-7-yl)pyrimidine-2,4-diamine] |  | 
< 100 | < 100 | Cc1cc(C)nc(Nc2nc(Nc3ccn4ccnc4c3)cc(N3CCC(N(C)C)CC3)n2)c1 [Example 134, 6-(4-(dimethylamino)piperidin-1-yl)-N2-(4,6-dimethylpyridin-2-yl)-N4-(imidazo[1,2-a]pyridin-7-yl)pyrimidine-2,4-diamine] |  | 
< 100 | < 100 | Cc1cc(C)nc(Nc2nc(Nc3ccn4ccnc4c3)cc(N3CCCC3)n2)c1 [Example 135, N2-(4,6-dimethylpyridin-2-yl)-N4-(imidazo[1,2-a]pyridin-7-yl)-6-(pyrrolidin-1-yl)pyrimidine-2,4-diamine] |  | 
< 100 | < 100 | Cc1cc(C)nc(Nc2nc(Nc3ccn4ccnc4c3)cc(N3CCC(O)C3)n2)c1 (stereo not shown) [Example 136, 1-(2-((4,6-dimethylpyridin-2-yl)amino)-6-(imidazo[1,2-a]pyridin-7-ylamino)pyrimidin-4-yl)pyrrolidin-3-ol] |  | 
< 100 | < 100 | Cc1cc(C)nc(Nc2nc(Nc3ccn4ccnc4c3)cc(N3CCC(N(C)C)C3)n2)c1 (stereo not shown) [Example 137, 6-(3-(dimethylamino)pyrrolidin-1-yl)-N2-(4,6-dimethylpyridin-2-yl)-N4-(imidazo[1,2-a]pyridin-7-yl)pyrimidine-2,4-diamine] |  | 
100 to 1000 | < 100 | Cc1cc(C)nc(Nc2nc(Nc3ccn4ccnc4c3)cc(N3CCC(F)(F)C3)n2)c1 [Example 138, 6-(3,3-difluoropyrrolidin-1-yl)-N2-(4,6-dimethylpyridin-2-yl)-N4-(imidazo[1,2-a]pyridin-7-yl)pyrimidine-2,4-diamine] |  | 
< 100 | < 100 | Cc1cc(C)nc(Nc2nc(Nc3ccn4ccnc4c3)cc(N3CC=CC3)n2)c1 [Example 139, 6-(2,5-dihydro-1H-pyrrol-1-yl)-N2-(4,6-dimethylpyridin-2-yl)-N4-(imidazo[1,2-a]pyridin-7-yl)pyrimidine-2,4-diamine] |  | 
< 100 | < 100 | COC1CCN(c2cc(Nc3ccn4ccnc4c3)nc(Nc3cc(C)cc(C)n3)n2)C1 (stereo not shown) [Example 140, N2-(4,6-dimethylpyridin-2-yl)-N4-(imidazo[1,2-a]pyridin-7-yl)-6-(3-methoxypyrrolidin-1-yl)pyrimidine-2,4-diamine] |  | 
